The source of these data is ChEMBL document CHEMBL1126229, “Enol lactone derivatives as inhibitors of human neutrophil elastase and trypsin-like proteases” (Bioorg Med Chem Lett, 1992).

The target of assay [1] is T1, Plasminogen (Homo sapiens, UniProt P00747). In words: Binding constant on plasmin was determined at 0 percent and at 98 minutes for maximum inhibition and no enzyme activity was recovered over the 2 h-time.
Assay [2] concerns the target Tissue-type plasminogen activator (Homo sapiens) (UniProt P00750). The assay is described as follows: Binding constant on Tissue type plasminogen activator was determined at 15 percent and at 90 minutes for maximum inhibition and no enzyme activity was recovered over the 2 h-time.
Assay [3] concerns the target T2, Prothrombin (Homo sapiens, UniProt P00734). In words: Binding constant on thrombin was determined at 15 percent and at 98 minutes for maximum inhibition and no enzyme activity was recovered over the 2 h-time.
Assay [4] deals with T2, Prothrombin. The assay is described as follows: Rate constant of deacylation for thrombin.
The target in assay [5] is T3, Serine protease 1 (Homo sapiens, UniProt P07477). In words: Binding constant on trypsin was determined at 0 percent and at 99 minutes for maximum inhibition and no enzyme activity was recovered over the 2 h-time.
T3 sequence (P07477 whole entry): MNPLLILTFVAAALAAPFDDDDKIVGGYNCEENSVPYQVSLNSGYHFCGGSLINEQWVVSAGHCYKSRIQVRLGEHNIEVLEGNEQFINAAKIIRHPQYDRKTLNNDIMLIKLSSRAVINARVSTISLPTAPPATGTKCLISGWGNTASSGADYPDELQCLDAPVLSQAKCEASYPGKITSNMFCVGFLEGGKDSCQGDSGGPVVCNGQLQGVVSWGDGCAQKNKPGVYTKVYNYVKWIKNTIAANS
Assay [6] has as its target T3, Serine protease 1. The assay is described as follows: Rate constant of acylation on trypsin was determined at 0 percent and at 99 minutes for maximum inhibition and no enzyme activity was recovered over the 2 h-time.
Assay [7] concerns the target T3, Serine protease 1. In words: Specificity constant on trypsin was determined at 0 percent and at 99 minutes for maximum inhibition and no enzyme activity was recovered over the 2 h-time.
In assay [8] the target is T1, Plasminogen.
In assay [9] the target is T1, Plasminogen. This is another data set of the same source.
For assay [10], the target named is T2, Prothrombin.
In assay [11] the target is T2, Prothrombin. This is another data set of the same source.
Assay [12] has as its target Tissue-type plasminogen activator (Homo sapiens) (UniProt P00750).
Assay [13] deals with T4, Urokinase-type plasminogen activator (Homo sapiens, UniProt P00749).
Assay [14] addresses T4, Urokinase-type plasminogen activator. The source holds these as a separate data set.
Description: Specificity constant on Urokinase-type plasminogen activator was determined at 0 percent and at 91 minutes for maximum inhibition and no enzyme activity was recovered over the 2 h-time
Assay [15] has as its target T1, Plasminogen. In words: Rate constant of deacylation for plasmin; Fast and could not be measured.
Assay [16] concerns the target T4, Urokinase-type plasminogen activator. The assay is described as follows: Rate constant of deacylation for Urokinase-type plasminogen activator.
Assay [17] concerns the target T3, Serine protease 1. The assay is described as follows: Rate constant of deacylation for trypsin.
Assay [18] has as its target T5, Neutrophil elastase (Homo sapiens) (UniProt P08246).
T5 sequence (whole entry): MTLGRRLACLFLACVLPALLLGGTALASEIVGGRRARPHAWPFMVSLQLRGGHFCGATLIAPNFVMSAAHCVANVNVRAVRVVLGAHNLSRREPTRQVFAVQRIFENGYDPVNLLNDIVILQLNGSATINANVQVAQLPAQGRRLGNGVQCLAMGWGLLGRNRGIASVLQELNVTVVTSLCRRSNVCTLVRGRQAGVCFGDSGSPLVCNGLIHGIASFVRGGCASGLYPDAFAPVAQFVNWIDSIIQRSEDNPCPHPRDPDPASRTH
In words: Specificity constant on human neutrophil elastase was determined at 18 percent and at 26 minutes for maximum inhibition and no enzyme activity was recovered over the 2 h-time.

Assay [19] addresses T5, Neutrophil elastase (Homo sapiens). The assay is described as follows: Rate constant of acylation on human neutrophil elastase was determined at 18 percent and at 26 minutes for maximum inhibition and no enzyme activity was recovered over the 2 h-time.
Assay [20] shares this target. In words: Binding constant on human neutrophil elastase was determined at 18 percent and at 26 minutes for maximum inhibition and no enzyme activity was recovered over the 2 h-time.
The target of assay [21] is T6, Chymotrypsin-like elastase family member 2A (Sus scrofa) (UniProt P08419).
T6 sequence (whole entry): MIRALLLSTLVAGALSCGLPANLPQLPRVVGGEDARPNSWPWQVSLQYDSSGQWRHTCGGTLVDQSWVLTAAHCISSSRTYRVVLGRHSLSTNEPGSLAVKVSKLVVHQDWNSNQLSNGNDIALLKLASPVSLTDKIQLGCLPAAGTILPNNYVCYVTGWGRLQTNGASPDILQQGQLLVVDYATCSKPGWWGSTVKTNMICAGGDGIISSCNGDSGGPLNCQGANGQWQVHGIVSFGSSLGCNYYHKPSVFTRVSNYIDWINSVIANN
In words: Rate constant of acylation on porcine pancreatic elastase was determined at 60 percent and at 30 minutes for maximum inhibition and no enzyme activity was recovered over the 2 h-time.

For assay [22], the target named is T6, Chymotrypsin-like elastase family member 2A (Sus scrofa). In words: Specificity constant on porcine pancreatic elastase was determined at 60 percent and at 30 minutes for maximum inhibition and no enzyme activity was recovered over the 2 h-time.
Assay [23] has the same target. The assay is described as follows: Binding constant on porcine pancreatic elastase was determined at 60 percent and at 30 minutes for maximum inhibition and no enzyme activity was recovered over the 2 h-time.
The target of assay [24] is T1, Plasminogen. The assay is described as follows: Rate constant of acylation on plasmin was determined at 0 percent and at 95 minutes for maximum inhibition and no enzyme activity was recovered over the 2 h-time.
Assay [25] addresses T1, Plasminogen. In words: Specificity constant on plasmin was determined at 0 percent and at 95 minutes for maximum inhibition and no enzyme activity was recovered over the 2 h-time.
In assay [26] the target is T1, Plasminogen. In words: Binding constant on plasmin was determined at 0 percent and at 95 minutes for maximum inhibition and no enzyme activity was recovered over the 2 h-time.
Assay [27] addresses T4, Urokinase-type plasminogen activator. The assay is described as follows: Binding constant on Urokinase-type plasminogen activator was determined at 0 percent and at 98 minutes for maximum inhibition and no enzyme activity was recovered over the 2 h-time.
The target of assay [28] is T2, Prothrombin. The assay is described as follows: Binding constant on thrombin was determined at 0 percent and at 93 minutes for maximum inhibition and no enzyme activity was recovered over the 2 h-time.
Assay [29] deals with T2, Prothrombin. In words: Rate constant of acylation on thrombin was determined at 0 percent and at 93 minutes for maximum inhibition and no enzyme activity was recovered over the 2 h-time.
In assay [30] the target is T2, Prothrombin. The assay is described as follows: Specificity constant on thrombin was determined at 0 percent and at 93 minutes for maximum inhibition and no enzyme activity was recovered over the 2 h-time.
The target in assay [31] is Chymotrypsinogen A (Bos taurus) (UniProt P00766). The assay is described as follows: Specificity constant on alpha-chymotrypsin was determined at 15 percent and at 78 minutes for maximum inhibition and no enzyme activity was recovered over the 2 h-time.
In assay [32] the target is T4, Urokinase-type plasminogen activator. In words: Rate constant of acylation on Urokinase-type plasminogen activator […] was determined at 0 percent and at 98 minutes for maximum inhibition and no enzyme activity was recovered over the 2 h-time.
For assay [33] the target is unchanged. The assay is described as follows: Specificity constant on Urokinase-type plasminogen activator was determined at 0 percent and at 98 minutes for maximum inhibition and no enzyme activity was recovered over the 2 h-time.
Assay [34] concerns the target Chymotrypsinogen A (Bos taurus) (UniProt P00766). In words: Binding constant on alpha-chymotrypsin was determined at 15 percent and at 78 minutes for maximum inhibition and no enzyme activity was recovered over the 2 h-time.
The target is the same in assay [35]. The assay is described as follows: Rate constant of acylation on alpha-chymotrypsin was determined at 15 percent and at 78 minutes for maximum inhibition and no enzyme activity was recovered over the 2 h-time.

T1 sequence (P00747 97-580 limits assumed): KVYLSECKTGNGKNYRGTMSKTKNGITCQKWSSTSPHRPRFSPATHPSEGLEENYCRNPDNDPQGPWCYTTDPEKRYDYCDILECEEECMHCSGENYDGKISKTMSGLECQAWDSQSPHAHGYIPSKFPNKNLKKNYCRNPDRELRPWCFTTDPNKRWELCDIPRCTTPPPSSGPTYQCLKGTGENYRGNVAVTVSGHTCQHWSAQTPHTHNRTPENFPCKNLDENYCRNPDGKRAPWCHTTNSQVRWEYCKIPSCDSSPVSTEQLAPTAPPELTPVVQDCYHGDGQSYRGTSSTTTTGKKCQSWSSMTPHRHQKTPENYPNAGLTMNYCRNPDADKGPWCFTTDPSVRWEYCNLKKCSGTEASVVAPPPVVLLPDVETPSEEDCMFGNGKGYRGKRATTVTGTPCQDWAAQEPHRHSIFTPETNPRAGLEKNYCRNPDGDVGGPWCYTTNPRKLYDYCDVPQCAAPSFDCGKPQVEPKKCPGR
T1 sequence (P00747 581-810 limits assumed): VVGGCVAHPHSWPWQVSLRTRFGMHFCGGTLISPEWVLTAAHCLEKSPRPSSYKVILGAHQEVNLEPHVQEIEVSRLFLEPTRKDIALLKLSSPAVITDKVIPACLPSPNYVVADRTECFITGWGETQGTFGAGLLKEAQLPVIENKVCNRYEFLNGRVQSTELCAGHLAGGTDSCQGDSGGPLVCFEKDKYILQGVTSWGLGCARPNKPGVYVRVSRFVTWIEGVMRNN
Sequence of Tissue-type plasminogen activator (Homo sapiens) (P00750 36-562 limits assumed): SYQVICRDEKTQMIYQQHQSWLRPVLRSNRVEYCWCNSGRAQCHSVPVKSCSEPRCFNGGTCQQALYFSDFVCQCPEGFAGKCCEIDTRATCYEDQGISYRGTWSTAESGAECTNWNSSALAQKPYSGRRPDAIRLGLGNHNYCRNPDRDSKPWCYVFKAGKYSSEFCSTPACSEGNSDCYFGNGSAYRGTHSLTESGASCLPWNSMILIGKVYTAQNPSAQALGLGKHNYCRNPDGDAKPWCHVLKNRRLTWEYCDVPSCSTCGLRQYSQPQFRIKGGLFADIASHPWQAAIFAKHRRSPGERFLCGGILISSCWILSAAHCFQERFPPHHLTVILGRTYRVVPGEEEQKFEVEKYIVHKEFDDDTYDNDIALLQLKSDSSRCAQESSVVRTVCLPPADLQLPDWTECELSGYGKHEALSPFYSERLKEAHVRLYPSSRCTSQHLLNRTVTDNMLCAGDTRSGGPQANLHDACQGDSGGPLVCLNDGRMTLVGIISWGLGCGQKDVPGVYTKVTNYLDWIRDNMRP

On to `N=C(N)NCc1ccc(C2CC/C(=C\I)OC2=O)cc1` (stereo not given), for which the Ks/i on Plasminogen [1] worked out at 1.19 µM; in assay [2], 0.12 µM; on Prothrombin [3] it was 14.8 µM; on Serine protease 1 [5], 0.08 µM. The same compound came in with a Kd on Prothrombin [4] of 0.013 min⁻¹. Further, the ka was 18.4 min⁻¹ on Serine protease 1 [6]; 10.2 min⁻¹ on Plasminogen [8]; 27.2 min⁻¹ at Prothrombin [10]; “Not measurable” in assay [12]; 7.56 min⁻¹ in [13]. Further, the ka/Ki on Serine protease 1 [7] came out at 230 µM⁻¹ min⁻¹; at Plasminogen [9], 9 µM⁻¹ min⁻¹; at Prothrombin [11], 2 µM⁻¹ min⁻¹; in [14], 756 µM⁻¹ min⁻¹.
`C=C1CC(c2ccc(NC(=N)N)cc2)CC(=O)O1` (stereo not given): the Kd entry was “Not measurable” at Plasminogen [15], 0.009 min⁻¹ in assay [16] and 0.002 min⁻¹ at Serine protease 1 [17].
Regarding `CC1(C)CC(=O)O/C(=C/Br)C1`, the values for the ka/Ki in assay [18] and in [22] were 0.04 µM⁻¹ min⁻¹ and 0.002 µM⁻¹ min⁻¹, respectively. In addition, the ka in [19] turned out to be 1.8 min⁻¹; in [21], 0.43 min⁻¹. Also, the Ks/i turned out to be 43.5 µM in [20] and 284 µM in [23].
Regarding `N=C(N)Nc1ccc(C2CC/C(=C\I)OC2=O)cc1` (stereo not given), the ka on Plasminogen [24] was 13.6 min⁻¹; at Prothrombin [29], 12.9 min⁻¹; in assay [32] it was 18.6 min⁻¹; in [35], 7.22 min⁻¹. The ka/Ki on Plasminogen [25] was 453 µM⁻¹ min⁻¹; on Prothrombin [30] it was 14 µM⁻¹ min⁻¹; in assay [31], 3 µM⁻¹ min⁻¹; in assay [33], 117 µM⁻¹ min⁻¹. In addition, the Ks/i at Plasminogen [26] was determined as 0.03 µM; in assay [27] it was 0.16 µM; on Prothrombin [28], 0.93 µM; in [34], 2.4 µM.
